# Results published in patent US20240342138A1, “MICROTUBULE TARGETING AGENTS” (BPGbio, Inc., priority 2023, published 2024).
# Columns and labels:
# Assay type in all cases: cell-based
# HCT116 cells = test: Spindle assembly checkpoint activation, flow cytometry; settings: 300 nM; FIG. 6
# Experimental: • 1. Hct116 were grown in DMEM with 10% FBS and 1% Penicillin/Streptomycin. • 2. Cells were plated into 6 well dishes at indicated cell numbers below (i.e. plate 1=300 k cells per well) and treatment started later the same day. Asynchronous (Asynch) control cells (Plate 1 were collected 1 day after plating. Compound 1 and Nocodazole were both 300 nM, CDK1i Ro-3306 10 μM, Aurora Bi (ABi) Hesperadin 50 μM. • 3. Cells were treated with Compound 1 or Noc for 20 hours then sequentially without changing media they were treated with CDK1i or ABi for 4 more hours. Alternatively, cells were treated with Compound 1 or Noc for 20 h then washed twice with warm media and grown in fresh media for 4 hours to allow passage through mitosis into G1 as diploid cells. • 4. Note that plate 4 treatments were in general extremely toxic to cells or inconclusive.
# • 1. Collected all media and cells into the same conical tube. Centrifuged cells at 1000×g for 3 min. • 2. Aspirated off supernatant, washed with PBS. • 3. Centrifuged cells as above. • 4. Resuspended cells in cold 400 μl and while gently vortexing added 1 mL cold 100% ethanol slowly dropwise (fixes and permeabilizes) • 5. Stored at 4 degrees C. for at a minimum of 1 hour, or up to one week. • 6. […] Analyzed data with FlowJo 10 software and made graphs with GraphPad Prism.
# C6 cells = test: In vitro potency in glioblastoma cells, Realtime-Glo assay; settings: Rattus norvegicus, FIG. 14A, read-out: In vitro potency (anti-cancer activity)
# Description: (§1) FIG. 14A-14E show the efficacy of Compound 1 in glioblastoma cell lines in vitro and in a glioblastoma rat model (C6). A) In vitro potency of Compound 1 in four different glioblastoma cell lines as evaluated by Realtime-Glo™ assay (C6, and U87 cells) or ATPlite 1Step™ Perkin Elmer (performed by NTRC Oncolines; T98G and A-172 cells). B) Study design overview: C6 rat glioma cells (3×10^5) were implanted into the right entorhinal cortex/subiculum region of male Sprague Dawley rats and tumor burden was assessed 14 days post inoculation using MRI and animals randomized into […] (4) groups (vehicle control, 5 mg/kg, 10 mg/kg, and 20 mg/kg Compound 1) with 4 animals per group. […] C) Body weights were measured every two days. […]
# (§2) Glioblastoma (GBM) is the most common and highly malignant form of primary brain tumor with a poor prognosis despite advances in treatments. […] Accordingly, the in vitro potency of Compound 1 was examined in four different glioblastoma cell lines as evaluated by Realtime-Glo™ assay (C6, and U87 cells) or ATPlite 1Step™ Perkin Elmer (performed by NTRC Oncolines; T98G and A-172 cells). […] Therefore, the in vivo tumor activity of Compound 1 was next assessed in Sprague Dawley rats implanted with C6 rat glioma cells into the right entorhinal cortex/subiculum region (AP: −7 mm; ML: 4.5 mm, DV: 5 mm). […]
# U87 cells = test: as above; settings: Homo sapiens, U-87 MG, FIG. 14A, read-out: In vitro potency (anti-cancer activity)
# Description: as §1, §2
compound,measurement,setting,value
"COc1ccccc1-c1nc(CNC(=O)c2ccccc2OC(F)F)n[nH]1 [Compound 1, 2-(difluoromethoxy)-N-[[5-(2-methoxyphenyl)-1H-1,2,4-triazol-3-yl]methyl]benzamide]","Spindle assembly checkpoint activation, mechanism",HCT116 cells,a mechanism at or before microtubule-kinetochore attachment in M phase of the cell cycle
same,IC50,C6 cells,42 nM
same,IC50,U87 cells,89 nM
